Source: patent US20100189811A1, “Biocide compositions comprising 3-methylisothiazolin-3-one and a haloalkyl sulphone” (THOR GmbH, priority 2009, published 2010)

Assays:
[1] = system: Aspergillus niger (ATCC16404); experiment: Minimum inhibitory concentration and synergy index in Sabouraud glucose agar, visual test for growth; format: cell-based; conditions: 72 hours at 25° C.; for Synergy index Qa/QA + Qb/QB: method of Kull et al.
Protocol: (§1) The synergism of a combination of MIT with diiodomethyl p-tolyl sulphone was tested. Test organisms used were the Gram-negative bacterium Pseudomonas aeruginosa (ATCC 9027) and the mould Aspergillus niger (ATCC16404). For the purpose of the test, mixtures containing different concentrations of MIT and diiodomethyl p-tolyl sulphone were prepared and tested for their action on Pseudomonas aeruginosa and Aspergillus niger respectively. The active compound mixtures in the corresponding concentrations were introduced into selective nutrient media (nutrient agar for Pseudomonas aeruginosa and Sabouraud glucose agar for Aspergillus niger) and the test organisms were likewise incorporated into the agar. The cell density in the agar was in each case 10^6 microbes per ml in the case of Pseudomonas aeruginosa and 10^5 spores per ml in for Aspergillus niger.
(§2) The incubation time is 48 hours (bacteria) or 72 hours (moulds) at 30° C. and 25° C. respectively. This was followed by visual testing for growth of Pseudomonas aeruginosa and Aspergillus niger. In the case of Pseudomonas aeruginosa, growth was apparent by hazing or greenish coloration of the nutrient medium, or by formation of colonies on the surface of the agar. In the case of Aspergillus niger, the growth was apparent through the formation of colonies or mycelia on the surface of the agar. In this way the minimum inhibitory concentrations (MICs) of the two active compounds were determined, individually and in combination. The MIC is the concentration at which there is no longer any hazing, colouring of the agar or colony formation on the surface of the agar (Pseudomonas aeruginosa) and no formation of colonies or mycelia on the surface of the agar (Aspergillus niger).
(§3) The synergism that occurred was presented numerically by calculation of the synergy index (SI). This calculation was made using the common method of F. C. Kull et al., Applied Microbiology, vol. 9 (1961), p. 538. SI is calculated there in accordance with the following formula:
(§4) Synergy index SI=Qa/QA+Qb/QB
(§5) In the application of this formula to the MIT+DIMTS biocide system tested here, the variables in the formula have the following definition:
(§6) Qa=concentration of MIT in the mixture of diiodomethyl p-tolyl sulphone+MIT QA=concentration of MIT as sole biocide Qb=concentration of diiodomethyl p-tolyl sulphone in the biocide mixture QB=concentration of diiodomethyl p-tolyl sulphone as sole biocide
(§7) If the synergy index has a value of more than 1, this means that there is an antagonism.
(§8) If the synergy index adopts a value of 1, this means that the action of the two biocides is additive. If the synergy index takes on a value of below 1, this means that there is synergism of the two biocides.

[2] = system: Pseudomonas aeruginosa (ATCC 9027); experiment: Minimum inhibitory concentration and synergy index in nutrient agar, visual test for growth; format: cell-based; conditions: 48 hours at 30° C.; for Synergy index Qa/QA + Qb/QB: method of Kull et al.
Protocol: as §1, §2, §3, §4, §5, §6, §7, §8

[3] = concentration of MIT (sole or in the mixture) which shows an endpoint
[4] = concentration of DIMTS (sole or in the mixture) that shows an endpoint

SMILES	Synergy index Qa/QA + Qb/QB [1]	MHK Qa (MIT) [1, 3]	Synergy index Qa/QA + Qb/QB [2]	MHK Qa (MIT) [2, 3]	MHK Qb (DIMTS) [1, 4]	MHK Qb (DIMTS) [2, 4]
Cn1sccc1=O [MIT, 2-methylisothiazolin-3-one]	1.00	800 ppm	1.00	40 ppm		
Cc1ccc(S(=O)(=O)C(I)I)cc1 [DIMTS, diiodomethyl p-tolyl sulphone]	1.00		1.00		10 ppm	1250 ppm
